# Molecular target: Escherichia coli DNA gyrase A/B tetramer (Escherichia coli (strain K12), UniProt P0AES4+P0AES6)
# Experiment: DNA gyrase supercoiling activity fluorescence polarisation assay
# Assay type: biochemical
# Conditions: 5 nM enzyme, relaxed plasmid, 0.3 mM ATP, ambient temperature; read-out: E. coli DNA gyrase supercoiling IC50
# Procedure: DNA Gyrase Supercoiling Activity Fluorescence Polarisation Assay
# The supercoiling reactions may be quenched by the addition of 10 microliters/well of 40 nM oligodeoxynucleotide probe in 3× triplex-forming buffer consisting of 150 mM NaCl, and 150 mM sodium acetate at pH 3.5. The oligodeoxynucleotide probe may be 5′-BODIPY-FL-labeled […]. After 60 minutes, the fluorescence anisotropy of the BODIPY-FL may be measured in a Tecan Ultra plate reader, using 485 nm excitation and 535 nm emission filters equipped with polarizers. The IC50 may be determined by nonlinear regression using two control reactions. The first contains no test compound but 0.8% DMSO (100% activity) while the second control reaction contains 5 μM Ciprofloxacin and 0.8% DMSO (0% activity).
row,SMILES,IC50
1,"C[C@@H]1CN2c3c(nc4c(-c5ccc(C(N)=O)nc5)noc4c3Cl)CC3(C(=O)NC(=O)NC3=O)[C@H]2[C@H](C)O1 (relative stereo) [Example 123, 5-((2R,4S,4aS)-rel-11-chloro-2,4-dimethyl-2′,4′,6′-trioxo-2,2′,3′,4,4a,4′,6,6′-octahydro-1H,1′H-spiro[isoxazolo[4,5-g][1,4]oxazino[4,3-a][1,5]naphthyridine-5,5′-pyrimidine]-8-yl)picolinamide]",5800 nM
2,"C[C@@H]1CN2c3c(cc4c(C(=O)NCc5ccnn5C)noc4c3F)CC3(C(=O)NC(=O)NC3=O)[C@H]2[C@H](C)O1 (racemic) [Example 162, (2R,4 S,4 aS)-rel-11-fluoro-2,4-dimethyl-N-((1-methyl-1H-pyrazol-5-yl)methyl)-2′,4′,6′-trioxo-2,2′,3′,4,4a,4′,6,6′-octahydro-1H,1′H-spiro[isoxazolo[4,5-g][1,4]oxazino[4,3-a]quinoline-5,5′-pyrimidine]-8-carboxamide]",2100 nM
3,"CC(=O)Nc1noc2c(F)c3c(cc12)CC1(C(=O)NC(=O)NC1=O)[C@H]1[C@H](C)O[C@H](C)CN31 (relative stereo) [Example 6, N-[(2R,4S,4aS)-rel-11-fluoro-2,4-dimethyl-2′,4′,6′-trioxo-1,1′,2,3′,4,4′,4a,6′-octahydro-2′H,6H-spiro[isoxazolo[4,5-g][1,4]oxazino[4,3-a]quinoline-5,5′-pyrimidin]-8-yl]acetamide]",800 nM
4,"C[C@@H]1CN2c3c(cc4c(C(F)(F)F)noc4c3F)CC3(C(=O)NC(=O)NC3=O)[C@H]2[C@H](C)O1 (racemic) [Example 92, (2R,4 S,4 aS)-rel-11-fluoro-2,4-dimethyl-8-(trifluoromethyl)-2,4,4a,6-tetrahydro-1H,1′H-spiro[isoxazolo[4,5-g][1,4]oxazino[4,3-a]quinoline-5,5′-pyrimidine]-2′,4′,6′(3′H)-trione]",1400 nM
5,"COCCNC(=O)c1noc2c(F)c3c(cc12)CC1(C(=O)NC(=O)NC1=O)[C@H]1[C@H](C)O[C@H](C)CN31 (relative stereo) [Example 143, (2R,4S,4aS)-rel-11-fluoro-N-(2-methoxyethyl)-2,4-dimethyl-2′,4′,6′-trioxo-2,2′,3′,4,4a,4′,6,6′-octahydro-1H,1′H-spiro[isoxazolo[4,5-g][1,4]oxazino[4,3-a]quinoline-5,5′-pyrimidine]-8-carboxamide]",1000 nM
6,"C[C@@H]1CN2c3c(cc4c(C(=O)N5CCC(F)(F)C5)noc4c3F)CC3(C(=O)NC(=O)NC3=O)[C@H]2[C@H](C)O1 (racemic) [Example 158, (2R,4 S,4 aS)-rel-8-(3,3-difluoropyrrolidine-1-carbonyl)-11-fluoro-2,4-dimethyl-2,4,4a,6-tetrahydro-1H,1′H-spiro[isoxazolo[4,5-g][1,4]oxazino[4,3-a]quinoline-5,5′-pyrimidine]-2′,4′,6′(3′H)-trione]",1400 nM
7,"CCCNc1noc2c(F)c3c(cc12)CC1(C(=O)NC(=O)NC1=O)[C@H]1[C@H](C)O[C@H](C)CN31 (relative stereo) [Example 31, (2R,4S,4aS)-rel-11-fluoro-2,4-dimethyl-8-(propylamino)-1,2,4,4a-tetrahydro-2′H,6H-spiro[1,4-oxazino[4,3-a][1,2]oxazolo[4,5-g]quinoline-5,5′-pyrimidine]-2′,4′,6′(1′H,3′H)-trione]",2200 nM
8,"C[C@@H]1CN2c3c(cc4c(C#N)noc4c3F)CC3(C(=O)NC(=O)NC3=O)[C@H]2[C@H](C)O1 (relative stereo) [Example 183, (2R,4S,4aS)-rel-11-fluoro-2,4-dimethyl-2′,4′,6′-trioxo-1,1′,2,3′,4,4′,4a,6′-octahydro-2′H,6H-spiro[1,4-oxazino[4,3-a][1,2]oxazolo[4,5-g]quinoline-5,5′-pyrimidine]-8-carbonitrile]",12000 nM
9,"C[C@@H]1CN2c3c(nc4c(-c5sc(Cl)nc5Cl)noc4c3Cl)CC3(C(=O)NC(=O)NC3=O)[C@H]2[C@H](C)O1 (relative stereo) [Example 116, (2R,4S,4aS)-rel-11-chloro-2,4-dimethyl-8-(2,4-dichlorothiazol-5-yl)-2,4,4a,6-tetrahydro-1H,1′H-spiro[isoxazolo[4,5-g][1,4]oxazino[4,3-a][1,5]naphthyridine-5,5′-pyrimidine]-2′,4′,6′(3′H)-trione]",2000 nM
10,"C[C@@H]1CN2c3c(cc4c(C(=O)NCC5CCCCC5)noc4c3F)CC3(C(=O)NC(=O)NC3=O)[C@H]2[C@H](C)O1 (relative stereo) [Example 156, (2R,4S,4aS)-rel-N-(cyclohexylmethyl)-11-fluoro-2,4-dimethyl-2′,4′,6′-trioxo-2,2′,3′,4,4a,4′,6,6′-octahydro-1H,1′H-spiro[isoxazolo[4,5-g][1,4]oxazino[4,3-a]quinoline-5,5′-pyrimidine]-8-carboxamide]",1500 nM
11,"C[C@@H]1CN2c3c(cc4c(NCc5cnn(C)c5)noc4c3F)CC3(C(=O)NC(=O)NC3=O)[C@H]2[C@H](C)O1 (relative stereo) [Example 12, (2R,4S,4aS)-rel-11-fluoro-2,4-dimethyl-8-{[(1-methyl-1H-pyrazol-4-yl)methyl]amino}-1,2,4,4a-tetrahydro-2′H,6H-spiro[1,4-oxazino[4,3-a][1,2]oxazolo[4,5-g]quinoline-5,5′-pyrimidine]-2′,4′,6′(1′H,3′H)-trione]",1200 nM
12,"Cc1cc(CNc2noc3c(F)c4c(cc23)CC2(C(=O)NC(=O)NC2=O)[C@H]2[C@H](C)O[C@H](C)CN42)no1 (relative stereo) [Example 13, (2R,4S,4aS)-rel-11-fluoro-2,4-dimethyl-8-{[(5-methyl-1,2-oxazol-3-yl)methyl]amino}-1,2,4,4a-tetrahydro-2′H,6H-spiro[1,4-oxazino[4,3-a][1,2]oxazolo[4,5-g]quinoline-5,5′-pyrimidine]-2′,4′,6′(1′H,3′H)-trione]",1700 nM
13,"C[C@@H]1CN2c3c(cc4c(-c5cncc(N(C)C)n5)noc4c3F)CC3(C(=O)NC(=O)NC3=O)[C@H]2[C@H](C)O1 (relative stereo) [Example 177, (2R,4S,4aS)-rel-8-(6-(dimethylamino)pyrazin-2-yl)-11-fluoro-2,4-dimethyl-2,4,4a,6-tetrahydro-1H,1′H-spiro[isoxazolo[4,5-g][1,4]oxazino[4,3-a]quinoline-5,5′-pyrimidine]-2′,4′,6′(3′H)-trione]",5000 nM
14,"C[C@@H]1CN2c3c(cc4c(-c5cncn5C)noc4c3F)CC3(C(=O)NC(=O)NC3=O)[C@H]2[C@H](C)O1 (relative stereo) [Example 70, (2R,4S,4aS)-rel-11-fluoro-2,4-dimethyl-8-(1-methyl-1H-imidazol-5-yl)-1,2,4,4a-tetrahydro-2′H,6H-spiro[1,4-oxazino[4,3-a][1,2]oxazolo[4,5-g]quinoline-5,5′-pyrimidine]-2′,4′,6′(1′H,3′H)-trione]",500 nM
15,"C[C@@H]1CN2c3c(cc4c(NCc5cccnc5)noc4c3F)CC3(C(=O)NC(=O)NC3=O)[C@H]2[C@H](C)O1 (relative stereo) [Example 15, (2R,4S,4aS)-rel-11-fluoro-2,4-dimethyl-8-[(pyridin-3-ylmethyl)amino]-1,2,4,4a-tetrahydro-2′H,6H-spiro[1,4-oxazino[4,3-a][1,2]oxazolo[4,5-g]quinoline-5,5′-pyrimidine]-2′,4′,6′(1′H,3′H)-trione]",1000 nM

# Source: patent publication US9040528B2, “Chemical compounds 542” (AstraZeneca AB, priority 2008, dated 2015)
